{
  "source": "patent US7815928B2",
  "about": "“Device for local administration of solid or semi-solid formulations and delayed-release formulations for proposal parenteral administration and preparation process” (Societe de Conseils de Recherches et d'Applications …, priority 1996, dated 2010)",
  "origin": "cited, not measured here",
  "system": "smooth muscle cells",
  "details": "after endothelial damage",
  "data": [
    {"substance": "heparin", "values": [
      {"measurement": "proliferation of smooth muscle cells", "result": "inhibits the proliferation"}
    ]}
  ]
}
